Measured values published in PMC10979003, “Development and crystal structures of a potent second-generation dual degrader of BCL-2 and BCL-xL” (Nature Communications, 2024).

What was measured:
HiBiT-BCL-2 = molecular target: T1, HiBiT-BCL-2 (Homo sapiens, UniProt P10415); assay: HiBiT degradation assay, HiBiT knock-in BCL-2 HeLa cells; format: cell-based; conditions: for Time to degrade 50% of BCL-2: 100 nM compound
T1 construct: endogenous in cells; host or cells: HeLa (ATCC CCL-2), CRISPR-Cas9 HiBiT knock-in clone
T1 sequence (P10415 whole entry): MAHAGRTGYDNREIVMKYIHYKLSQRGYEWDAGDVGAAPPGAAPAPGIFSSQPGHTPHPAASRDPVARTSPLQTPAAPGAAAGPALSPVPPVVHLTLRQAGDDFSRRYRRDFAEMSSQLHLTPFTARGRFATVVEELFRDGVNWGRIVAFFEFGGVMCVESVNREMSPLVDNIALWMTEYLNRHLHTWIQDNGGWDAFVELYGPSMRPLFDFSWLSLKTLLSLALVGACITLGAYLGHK
Method: The Alt-R CRISPR RNA (crRNA):Alt-R trans-activating crRNA (tracrRNA) duplexes for targeting BCL-xL or BCL-2 were prepared by mixing 0.5 nmol crRNA and 0.5 nmol tracrRNA in 25 μL of Nuclease-Free Duplex Buffer (Integrated DNA Technologies, IDT) by incubation at 95 °C for 5 min and cooling to RT. Single-stranded ultramer DNA oligonucleotides (ssODN) (IDT) were used as the homology directed repair (HDR) donor templates. The sequences of gRNAs and ssODN templates are listed in Supplementary Table 2. Ribonucleoprotein (RNP) complexes with recombinant Streptococcus pyogenes Cas9 protein (IDT) and crRNA:tracrRNA duplex were assembled by incubating 100 pmol of Cas9 and 120 pmol of gRNA for 10–20 min at room temperature. HeLa (2 × 10^5) cells were resuspended in 10 μL of Neon^TM transfection system buffer R from the Neon^TM transfection system 10 mL kit (Thermo Fisher), and the RNP complex along with 100 pmol ssODN template were electroporated into HeLa cells with the Neon^TM transfection system (Thermo Fisher). After electroporation, HeLa cells were transferred to a 12-well plate for culturing. Edited pooled cells were analyzed for HiBiT insertion by assaying for luminescence using Nano-Glo® HiBiT lytic detection system (Cat #N3040, Promega) in a Biotek’s Synergy Neo2 multimode plate reader (Biotek) 48–72 h after electroporation and single clones were selected by serial dilution.
HeLa HiBiT-BCL-xL and HeLa HiBiT-BCL-2 cells (2 × 10^4/well in 80 μL DMEM) were seeded into white 96-well tissue culture plates and incubated overnight at 37 °C, 5% CO2. For dose curve testing, the following day, serial diluted compounds were added into the medium and then plates were incubated at 37 °C, 5% CO2, for 6 h. For time course testing, in the following day, compounds with indicated concentrations were added into the medium at different time points. After treatment, the luminescence signals were measured using Nano-Glo® HiBiT lytic detection system (Cat #N3040, Promega) in a Biotek’s Synergy Neo2 multimode plate reader (Biotek).

Jurkat cells = assay: TMT-based proteomics in Jurkat cells; format: cell-based, human; conditions: 100 nM, 8 h
Method: To further assess the cellular selectivity of 753b and WH244 for BCL-xL/BCL-2 proteins, multiplexed tandem mass tag (TMT) labeling mass spectrometry proteomic experiments were performed to monitor protein levels in an unbiased fashion. Jurkat cells were treated in triplicate with DMSO, 100 nM 753b or 100 nM WH244 for 8 h (Supplementary Fig. 10b). […] To assess BCL-xL and BCL-2 degradation, we utilized western blotting with the same samples, and successfully verified the degradation of both BCL-xL and BCL-2 proteins induced by 753b and WH244, respectively (Supplementary Fig. 10c). We speculate that these apparently contradictory results may be attributable to some of the limitations of TMT technology, where low TMT-labeling efficiency for some proteins and peptides, can lead to inability to detect these proteins by TMT-based proteomics analysis. This limitation has been observed in several other reported PROTAC studies[52],[53]. […]
Proteins were identified and MS3 reporter ions quantified using MaxQuant (version 2.2.0.0; Max Planck Institute) against the Homo sapiens UniprotKB database (March 2023) with a parent ion tolerance of 3 ppm, a fragment ion tolerance of 0.5 Da, and a reporter ion tolerance of 0.003 Da. […] Protein TMT MS3 reporter ion intensity values were assessed for quality using ProteiNorm for a systematic evaluation of normalization methods. […]

## Cc1ncsc1-c1ccc(C(C)NC(=O)C2CC(O)CN2C(=O)C(NC(=O)CCCCCCC(=O)N2CCN(CC3(C)CCC(c4ccc(Cl)cc4)=C(CN4CCN(c5ccc(C(=O)NS(=O)(=O)c6ccc(NC(CCN7CCOCC7)CSc7ccccc7)c(S(=O)(=O)C(F)(F)F)c6)cc5)CC4)C3)CC2)C(C)(C)C)cc1 (centres unmarked) [753b]
HiBiT-BCL-2
  Time to degrade 50% of BCL-2: > 480 min
Jurkat cells
  Proteins significantly down-regulated among approximately 6000 identified: none of which exhibited significant down-regulation

## Cc1ncsc1-c1ccc([C@H](C)NC(=O)[C@@H]2C[C@@H](O)CN2C(=O)[C@@H](NC(=O)CN2CCN(CC(=O)N3CCN(C[C@]4(C)CCC(c5ccc(Cl)cc5)=C(CN5CCN(c6ccc(C(=O)NS(=O)(=O)c7ccc(N[C@H](CCN8C[C@@H]9C[C@H]8CO9)CSc8ccccc8)c(S(=O)(=O)C(F)(F)F)c7)cc6)CC5)C4)CC3)CC2)C(C)(C)C)cc1 [WH244]
HiBiT-BCL-2
  Time to degrade 50% of BCL-2: about 250 min
HiBiT-BCL-2; 6 h treatment
  Potency for inducing degradation of BCL-2 (comparison): more potent than 753b
Jurkat cells
  Proteins significantly down-regulated among approximately 6000 identified: none of which exhibited significant down-regulation
